# Earlier results, collected in patent publication US12274789B2, “Oral compositions comprising methylprednisolone sodium succinate” (LABOMED PHARMACEUTICAL COMPANY S.A., priority 2018, dated 2025).
# Conditions: versus prednisolone
compound,measurement,value
"C[C@H]1C[C@@H]2[C@H]([C@@H](O)C[C@@]3(C)[C@H]2CC[C@]3(O)C(=O)COC(=O)CCC(=O)[O-])[C@@]2(C)C=CC(=O)C=C12.[Na+] [methylprednisolone sodium succinate, pregna-1,4-diene-3,20dione,21-(3-carboxy-1-oxopropoxy)-11,17-dihydroxy-6-methyl-monosodium salt, (6α, 11β)]","anti-inflammatory potency, ratio to prednisolone",5 to 4
